How the values were obtained:
[1] = biological target: Cyclin-dependent kinase 3 (Homo sapiens) (UniProt Q00526); details: Compound concentration 1000.0 nM
[2] = biological target: Non-receptor tyrosine-protein kinase TNK1 (Homo sapiens) (UniProt Q13470); details: Compound concentration 1000.0 nM
[3] = biological target: Atypical kinase COQ8A, mitochondrial (Homo sapiens) (UniProt Q8NI60); details: Compound concentration 1000.0 nM
[4] = biological target: Cyclin-dependent kinase 2 homolog (Plasmodium falciparum (isolate 3D7)) (UniProt P61075); details: Compound concentration 1000.0 nM
[5] = biological target: Tyrosine-protein kinase FRK (Homo sapiens) (UniProt P42685); details: Compound concentration 1000.0 nM
[6] = biological target: Activin receptor type-1 (Homo sapiens) (UniProt Q04771); details: Compound concentration 1000.0 nM
[7] = biological target: RAC-gamma serine/threonine-protein kinase (Homo sapiens) (UniProt Q9Y243); details: Compound concentration 1000.0 nM
[8] = biological target: Mitogen-activated protein kinase 8 (Homo sapiens) (UniProt P45983); details: Compound concentration 1000.0 nM
[9] = system: Receptor-type tyrosine-protein kinase FLT3 (Homo sapiens), P36888 [K663Q]; details: Compound concentration 1000.0 nM
[10] = biological target: Mitogen-activated protein kinase kinase kinase 1 (Homo sapiens) (UniProt Q13233); details: Compound concentration 1000.0 nM
[11] = system: Hepatocyte growth factor receptor (Homo sapiens), P08581 [Y1235D]; details: Compound concentration 1000.0 nM
[12] = biological target: Citron Rho-interacting kinase (Homo sapiens) (UniProt O14578); details: Compound concentration 1000.0 nM
[13] = biological target: Serine/threonine-protein kinase pim-3 (Homo sapiens) (UniProt Q86V86); details: Compound concentration 1000.0 nM
[14] = biological target: Serine/threonine-protein kinase N2 (Homo sapiens) (UniProt Q16513); details: Compound concentration 1000.0 nM
[15] = biological target: Serine/threonine-protein kinase haspin (Homo sapiens) (UniProt Q8TF76); details: Compound concentration 1000.0 nM
[16] = system: Tyrosine-protein kinase ABL1 (Homo sapiens), P00519 [F317I]; details: Compound concentration 1000.0 nM
[17] = system: Receptor-type tyrosine-protein kinase FLT3 (Homo sapiens), P36888 [UNDEFINED MUTATION]; details: Compound concentration 1000.0 nM
[18] = system: Epidermal growth factor receptor (Homo sapiens), P00533 [UNDEFINED MUTATION]; details: Compound concentration 1000.0 nM
[19] = system: Epidermal growth factor receptor (Homo sapiens), P00533 [UNDEFINED MUTATION]; details: Compound concentration 1000.0 nM; remark: listed apart in the source
[20] = biological target: Serine/threonine-protein kinase SIK3 (Homo sapiens) (UniProt Q9Y2K2); details: Compound concentration 1000.0 nM
[21] = biological target: Rho-associated protein kinase 1 (Homo sapiens) (UniProt Q13464); details: Compound concentration 1000.0 nM
[22] = biological target: Serine/threonine-protein kinase NLK (Homo sapiens) (UniProt Q9UBE8); details: Compound concentration 1000.0 nM
[23] = biological target: Interleukin-1 receptor-associated kinase 3 (Homo sapiens) (UniProt Q9Y616); details: Compound concentration 1000.0 nM
[24] = biological target: Tyrosine-protein kinase receptor TYRO3 (Homo sapiens) (UniProt Q06418); details: Compound concentration 1000.0 nM
[25] = biological target: Beta-2 adrenergic receptor (Homo sapiens) (UniProt P07550); details: Compound concentration 10.0 uM
[26] = biological target: Serine/threonine-protein kinase mTOR (Homo sapiens) (UniProt P42345); details: Compound concentration 1000.0 nM
[27] = biological target: T1, 5-hydroxytryptamine receptor 2C (Homo sapiens) (UniProt P28335); details: Compound concentration 10.0 uM
T1 sequence (whole entry): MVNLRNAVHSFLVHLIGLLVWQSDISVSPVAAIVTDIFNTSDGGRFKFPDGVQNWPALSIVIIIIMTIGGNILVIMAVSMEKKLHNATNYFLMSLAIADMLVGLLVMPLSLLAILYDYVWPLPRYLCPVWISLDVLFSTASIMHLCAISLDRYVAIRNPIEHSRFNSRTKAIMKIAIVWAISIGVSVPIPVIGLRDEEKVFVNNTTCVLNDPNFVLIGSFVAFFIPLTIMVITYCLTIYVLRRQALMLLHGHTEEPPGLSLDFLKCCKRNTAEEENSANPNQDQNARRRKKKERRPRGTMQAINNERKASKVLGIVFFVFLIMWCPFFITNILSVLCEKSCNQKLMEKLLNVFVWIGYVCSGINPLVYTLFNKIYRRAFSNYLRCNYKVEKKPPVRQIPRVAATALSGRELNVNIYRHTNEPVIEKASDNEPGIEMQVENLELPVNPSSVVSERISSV

[28] = system: Tyrosine-protein kinase ABL1 (Homo sapiens), P00519 [Y253F]; details: Compound concentration 1000.0 nM
[29] = system: Tyrosine-protein kinase ABL1 (Homo sapiens), P00519 [F317L]; details: Compound concentration 1000.0 nM
[30] = biological target: Macrophage colony-stimulating factor 1 receptor (Homo sapiens) (UniProt P07333); details: Compound concentration 1000.0 nM
[31] = biological target: Serine/threonine-protein kinase PAK 2 (Homo sapiens) (UniProt Q13177); details: Compound concentration 1000.0 nM
[32] = system: Epidermal growth factor receptor (Homo sapiens), P00533 [L858R,T790M]; details: Compound concentration 1000.0 nM
[33] = biological target: Mitogen-activated protein kinase kinase kinase 10 (Homo sapiens) (UniProt Q02779); details: Compound concentration 1000.0 nM
[34] = biological target: Dual specificity mitogen-activated protein kinase kinase 7 (Homo sapiens) (UniProt O14733); details: Compound concentration 1000.0 nM
[35] = biological target: Serine/threonine-protein kinase 35 (Homo sapiens) (UniProt Q8TDR2); details: Compound concentration 1000.0 nM

Activin receptor type-1 (Homo sapiens), sequence (Q04771 whole entry): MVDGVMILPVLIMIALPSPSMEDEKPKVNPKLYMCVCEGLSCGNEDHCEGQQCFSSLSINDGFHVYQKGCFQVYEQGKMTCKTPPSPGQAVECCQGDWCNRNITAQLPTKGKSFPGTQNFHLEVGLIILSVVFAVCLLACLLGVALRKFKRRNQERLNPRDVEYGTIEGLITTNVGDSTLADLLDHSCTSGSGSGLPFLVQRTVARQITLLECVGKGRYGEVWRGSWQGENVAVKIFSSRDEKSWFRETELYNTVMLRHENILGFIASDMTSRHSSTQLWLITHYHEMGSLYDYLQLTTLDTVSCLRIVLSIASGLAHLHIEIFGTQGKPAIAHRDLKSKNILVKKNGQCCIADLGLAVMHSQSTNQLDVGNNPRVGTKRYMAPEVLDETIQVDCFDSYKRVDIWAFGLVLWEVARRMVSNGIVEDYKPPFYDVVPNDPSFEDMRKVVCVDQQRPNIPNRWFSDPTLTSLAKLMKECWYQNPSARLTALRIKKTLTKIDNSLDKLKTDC
Mitogen-activated protein kinase kinase kinase 1 (Homo sapiens), sequence (Q13233 whole entry): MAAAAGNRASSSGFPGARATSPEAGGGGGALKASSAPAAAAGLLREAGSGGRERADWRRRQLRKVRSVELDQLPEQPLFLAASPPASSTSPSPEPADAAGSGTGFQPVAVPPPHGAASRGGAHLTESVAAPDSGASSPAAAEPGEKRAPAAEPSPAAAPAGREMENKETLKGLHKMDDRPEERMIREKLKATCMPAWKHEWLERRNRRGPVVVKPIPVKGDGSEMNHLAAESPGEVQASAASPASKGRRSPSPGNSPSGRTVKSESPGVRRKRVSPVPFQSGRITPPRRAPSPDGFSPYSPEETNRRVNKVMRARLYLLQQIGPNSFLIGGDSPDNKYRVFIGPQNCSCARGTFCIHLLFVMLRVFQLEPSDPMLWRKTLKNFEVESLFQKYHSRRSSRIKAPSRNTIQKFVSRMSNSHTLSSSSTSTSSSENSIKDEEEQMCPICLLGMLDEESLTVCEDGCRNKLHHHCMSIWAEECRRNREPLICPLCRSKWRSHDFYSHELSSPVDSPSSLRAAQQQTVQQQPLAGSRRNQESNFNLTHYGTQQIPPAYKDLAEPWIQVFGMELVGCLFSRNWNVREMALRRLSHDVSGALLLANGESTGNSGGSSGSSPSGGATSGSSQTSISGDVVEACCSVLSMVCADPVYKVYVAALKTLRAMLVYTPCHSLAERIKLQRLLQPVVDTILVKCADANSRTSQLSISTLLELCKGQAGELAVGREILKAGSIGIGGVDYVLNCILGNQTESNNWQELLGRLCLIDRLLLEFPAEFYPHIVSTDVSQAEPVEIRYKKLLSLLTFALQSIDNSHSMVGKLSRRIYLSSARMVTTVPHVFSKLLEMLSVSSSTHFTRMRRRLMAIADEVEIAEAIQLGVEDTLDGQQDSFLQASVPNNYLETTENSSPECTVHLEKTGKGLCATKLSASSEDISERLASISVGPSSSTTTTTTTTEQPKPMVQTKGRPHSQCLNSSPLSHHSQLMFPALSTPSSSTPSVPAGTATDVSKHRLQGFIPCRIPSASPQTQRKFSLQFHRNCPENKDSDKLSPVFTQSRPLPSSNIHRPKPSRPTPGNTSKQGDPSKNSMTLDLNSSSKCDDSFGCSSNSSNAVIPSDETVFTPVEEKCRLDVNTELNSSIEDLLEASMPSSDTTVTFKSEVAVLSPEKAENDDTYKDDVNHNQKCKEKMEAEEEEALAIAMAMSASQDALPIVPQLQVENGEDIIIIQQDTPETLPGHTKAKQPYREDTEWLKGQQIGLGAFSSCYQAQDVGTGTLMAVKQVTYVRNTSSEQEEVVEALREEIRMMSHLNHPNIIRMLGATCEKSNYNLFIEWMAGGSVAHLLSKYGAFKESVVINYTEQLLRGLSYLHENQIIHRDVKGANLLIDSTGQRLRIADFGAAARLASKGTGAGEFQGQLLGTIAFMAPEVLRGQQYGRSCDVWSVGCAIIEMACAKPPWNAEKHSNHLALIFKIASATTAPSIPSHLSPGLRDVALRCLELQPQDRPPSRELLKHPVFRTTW
Tyrosine-protein kinase receptor TYRO3 (Homo sapiens), sequence (Q06418 whole entry): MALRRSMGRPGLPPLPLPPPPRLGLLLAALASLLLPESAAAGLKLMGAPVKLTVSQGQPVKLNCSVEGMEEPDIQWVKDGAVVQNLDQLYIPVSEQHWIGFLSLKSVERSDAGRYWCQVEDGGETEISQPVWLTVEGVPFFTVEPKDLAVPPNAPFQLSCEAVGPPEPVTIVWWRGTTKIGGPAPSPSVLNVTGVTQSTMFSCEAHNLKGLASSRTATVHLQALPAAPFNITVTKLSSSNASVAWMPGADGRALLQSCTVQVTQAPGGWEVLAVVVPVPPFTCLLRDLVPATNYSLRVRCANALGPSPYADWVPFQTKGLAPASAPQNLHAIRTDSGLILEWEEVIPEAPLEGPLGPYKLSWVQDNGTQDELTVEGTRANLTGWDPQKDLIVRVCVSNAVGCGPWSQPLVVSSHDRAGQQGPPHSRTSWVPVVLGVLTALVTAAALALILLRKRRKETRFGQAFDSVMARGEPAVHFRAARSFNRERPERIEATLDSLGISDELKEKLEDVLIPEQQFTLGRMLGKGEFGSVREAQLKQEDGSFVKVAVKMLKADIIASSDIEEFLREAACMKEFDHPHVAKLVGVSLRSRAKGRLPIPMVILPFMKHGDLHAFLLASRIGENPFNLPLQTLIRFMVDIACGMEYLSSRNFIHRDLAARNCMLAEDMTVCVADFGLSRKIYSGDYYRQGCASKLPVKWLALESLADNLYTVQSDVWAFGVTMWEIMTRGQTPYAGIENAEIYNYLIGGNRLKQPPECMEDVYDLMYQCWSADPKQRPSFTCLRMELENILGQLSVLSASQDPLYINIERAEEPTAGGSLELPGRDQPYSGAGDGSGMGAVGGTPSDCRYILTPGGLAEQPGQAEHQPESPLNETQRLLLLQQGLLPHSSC
Mitogen-activated protein kinase kinase kinase 10 (Homo sapiens), sequence (Q02779 whole entry, looked up): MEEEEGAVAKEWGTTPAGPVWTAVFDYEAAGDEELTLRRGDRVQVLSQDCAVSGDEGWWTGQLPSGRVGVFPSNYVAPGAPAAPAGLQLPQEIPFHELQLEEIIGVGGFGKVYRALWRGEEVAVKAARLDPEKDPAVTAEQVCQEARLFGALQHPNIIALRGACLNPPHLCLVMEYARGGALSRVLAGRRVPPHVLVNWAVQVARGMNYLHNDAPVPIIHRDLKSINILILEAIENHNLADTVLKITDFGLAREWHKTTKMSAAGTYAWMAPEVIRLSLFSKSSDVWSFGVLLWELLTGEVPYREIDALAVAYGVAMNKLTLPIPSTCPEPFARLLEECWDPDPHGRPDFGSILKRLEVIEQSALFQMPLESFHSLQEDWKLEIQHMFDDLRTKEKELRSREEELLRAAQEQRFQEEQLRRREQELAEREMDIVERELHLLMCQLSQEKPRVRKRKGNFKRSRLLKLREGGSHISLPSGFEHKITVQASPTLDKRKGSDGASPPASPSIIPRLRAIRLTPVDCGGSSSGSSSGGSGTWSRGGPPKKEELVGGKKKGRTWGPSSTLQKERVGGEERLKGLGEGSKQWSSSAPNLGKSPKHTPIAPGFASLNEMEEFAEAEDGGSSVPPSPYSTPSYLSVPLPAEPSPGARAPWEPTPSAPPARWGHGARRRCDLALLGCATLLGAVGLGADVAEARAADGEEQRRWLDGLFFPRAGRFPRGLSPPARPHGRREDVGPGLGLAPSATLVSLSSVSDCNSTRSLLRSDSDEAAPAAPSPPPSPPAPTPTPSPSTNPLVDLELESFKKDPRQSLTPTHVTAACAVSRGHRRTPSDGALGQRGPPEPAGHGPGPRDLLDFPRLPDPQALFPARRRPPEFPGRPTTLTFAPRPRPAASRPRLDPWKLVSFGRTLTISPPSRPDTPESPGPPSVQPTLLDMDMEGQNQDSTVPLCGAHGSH
Dual specificity mitogen-activated protein kinase kinase 7 (Homo sapiens), sequence (O14733 whole entry): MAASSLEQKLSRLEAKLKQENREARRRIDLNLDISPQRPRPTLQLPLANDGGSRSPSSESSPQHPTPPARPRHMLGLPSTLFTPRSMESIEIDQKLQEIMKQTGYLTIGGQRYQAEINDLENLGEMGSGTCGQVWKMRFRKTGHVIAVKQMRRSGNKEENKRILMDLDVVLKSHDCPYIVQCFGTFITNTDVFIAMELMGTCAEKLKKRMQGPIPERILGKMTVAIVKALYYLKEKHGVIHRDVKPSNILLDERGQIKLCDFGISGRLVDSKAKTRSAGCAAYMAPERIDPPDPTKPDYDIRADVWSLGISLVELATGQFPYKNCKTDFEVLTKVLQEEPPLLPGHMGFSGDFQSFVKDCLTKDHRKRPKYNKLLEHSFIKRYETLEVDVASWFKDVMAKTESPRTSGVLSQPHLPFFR
Cyclin-dependent kinase 3 (Homo sapiens), sequence (Q00526 whole entry, looked up): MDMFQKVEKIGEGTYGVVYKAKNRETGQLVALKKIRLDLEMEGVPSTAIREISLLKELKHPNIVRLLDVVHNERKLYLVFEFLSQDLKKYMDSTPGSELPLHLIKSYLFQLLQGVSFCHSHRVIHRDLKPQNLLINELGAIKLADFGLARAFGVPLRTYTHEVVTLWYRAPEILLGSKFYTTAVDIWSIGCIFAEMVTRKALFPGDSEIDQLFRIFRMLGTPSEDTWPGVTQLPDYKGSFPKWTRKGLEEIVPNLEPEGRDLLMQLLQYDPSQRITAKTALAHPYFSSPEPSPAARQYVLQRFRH

CCC(=N\O)/C(C)=C/c1ccc(F)cc1 [A-079]
inactive: residual activity [1] 84% | residual activity [2] 66% | residual activity [3] 78% | residual activity [4] 84% | residual activity [5] 100% | residual activity [6] 80% | residual activity [7] 83% | residual activity [8] 86% | residual activity [9] 100% | residual activity [10] 63% | residual activity [11] 85% | residual activity [12] 70% | residual activity [13] 96% | residual activity [14] 80% | residual activity [15] 65% | residual activity [16] 77% | residual activity [17] 94% | residual activity [18] 59% | residual activity [19] 61% | residual activity [20] 68% | residual activity [21] 100% | residual activity [22] 100% | residual activity [23] 100% | residual activity [24] 100% | inhibition [25] 6.61% | residual activity [26] 100% | inhibition [27] 32.7% | residual activity [28] 80% | residual activity [29] 81% | residual activity [30] 100% | residual activity [31] 82% | residual activity [32] 100% | residual activity [33] 100% | residual activity [34] 79% | residual activity [35] 100%

CCC(=N\O)/C(C)=C/c1ccc(F)c(C)c1 [A-226]
inactive: residual activity [1] 100% | residual activity [2] 100% | residual activity [3] 91% | residual activity [4] 100% | residual activity [5] 80% | residual activity [6] 100% | residual activity [7] 89% | residual activity [8] 100% | residual activity [9] 100% | residual activity [10] 100% | residual activity [11] 100% | residual activity [12] 70% | residual activity [13] 80% | residual activity [14] 100% | residual activity [15] 100% | residual activity [16] 100% | residual activity [17] 100% | residual activity [18] 71% | residual activity [19] 69% | residual activity [20] 89% | residual activity [21] 100% | residual activity [22] 56% | residual activity [23] 94% | residual activity [24] 100% | inhibition [25] -1.29% | residual activity [26] 100% | inhibition [27] 27% | residual activity [28] 100% | residual activity [29] 100% | residual activity [30] 98% | residual activity [31] 79% | residual activity [32] 100% | residual activity [33] 75% | residual activity [34] 100% | residual activity [35] 100%

Source: ChEMBL document CHEMBL4507256 (2021)
